Data published in patent publication US9376376B2, “Substitute diphenylamine compounds use thereof as antitumor agents” (SINOCHEM CORPORATION, priority 2012, dated 2016).
Where two headings read alike, the source gives them in different places. Each block holds one molecule with its values, some of them ahead of it.

Assays:
prostate cancer PC-3 = assay: In vitro cell inhibition assay, CCK-8 method, PC-3; format: cell-based, human; conditions: Prostate cancer PC-3, CCK-8 method, read-out: The half maximal inhibitory concentration (IC50)
Procedure: (§1) After the cell culture flasks gently shaking, culture fluid was discarded in clean bench. […] Cells were collected and transferred to centrifuge tube. For the non-adherent cells HL-60, CCRF-CEM and MOLT-4, cell flasks were picked up from incubator and then transferred to the centrifuge tubes directly. After cells were collected using centrifuge at 1000 rpm/min for 5 min, the fluid was discarded. Then cells were washed for one time by PBS, discard fluid. Then add some medium, count cells under inverted microscope using blood cell counting plate, according the counting number to making the density of adherent cell was 1×10^5 cells/mL, the non-adherent cell was 2×10^5 cells/mL (the volumes of HL-60, CCRF-CEM, MOLT-4 are smaller than non-adherent cells, these cells added to each well was much more higher). Add 50 μL aliquots to each well of 96-well plates (the density of adherent cells was 5000 cells/well, non-adherent cells was 10000 cells/well). Blank control, Negative control, blank control with compounds and positive control wells were grouped, and three replicate wells were used for each data point in the experiments. Then the cells were cultured in 5% incubator for overnight at 37° C., Then the different concentration compounds were added to each well. […] The absorbance (A) of each well was read at 450 nm using a plate reader.

[1] = tested on: nasopharyngeal carcinoma CNE; assay: In vitro cell inhibition assay, CCK-8 method, CNE; format: cell-based, human; conditions: read-out: The half maximal inhibitory concentration (IC50)
Procedure: as §1

leukemia MOLT-4 = assay: In vitro cell inhibition assay, CCK-8 method, MOLT-4; format: cell-based, human; conditions: leukemia MOLT-4, CCK-8 method, read-out: The half maximal inhibitory concentration (IC50)
Procedure: as §1

[2] = tested on: non-small cell lung cancer NCI-H358; assay: In vitro cell inhibition assay, CCK-8 method, NCI-H358; format: cell-based, human; conditions: Non-small-cell carcinoma NCI-H358, CCK-8 method, read-out: The half maximal inhibitory concentration (IC50)
Procedure: as §1

prostate cancer DU-145 = assay: In vitro cell inhibition assay, CCK-8 method, DU-145; format: cell-based, human; conditions: Prostate cancer DU-145, CCK-8 method, read-out: The half maximal inhibitory concentration (IC50)
Procedure: as §1

[3] = tested on: non-small cell lung cancer A549 cells; assay: In vitro cell inhibition assay, CCK-8 method, A549; format: cell-based, human; conditions: for Proliferation inhibitory effect of the compounds on A549 cells (% of Control): 48 h incubation; for IC50: Non-small-cell carcinoma A549, CCK-8 method, read-out: The half maximal inhibitory concentration (IC50)
Procedure: (§2) After the cell culture flasks gently shaking, culture fluid was discarded in clean bench. […] Cells were collected and transferred to centrifuge tube. For the non-adherent cells HL-60, CCRF-CEM and MOLT-4, cell flasks were picked up from incubator and then transferred to the centrifuge tubes directly. After cells were collected using centrifuge at 1000 rpm/min for 5 min, the fluid was discarded. Then cells were washed for one time by PBS, discard fluid. Then add some medium, count cells under inverted microscope using blood cell counting plate, according the counting number to making the density of adherent cell was 1×10^5 cells/mL, the non-adherent cell was 2×10^5 cells/mL (the volumes of HL-60, CCRF-CEM, MOLT-4 are smaller than non-adherent cells, these cells added to each well was much more higher). Add 50 μL aliquots to each well of 96-well plates (the density of adherent cells was 5000 cells/well, non-adherent cells was 10000 cells/well). Blank control, Negative control, blank control with compounds and positive control wells were grouped, and three replicate wells were used for each data point in the experiments. Then the cells were cultured in 5% incubator for overnight at 37° C., Then the different concentration compounds were added to each well. After incubation for 48 h, according to the manufacturer's instructions, CCK-8 reagent (10 μl) was added and incubation was continued for a further 2-4 h. The absorbance (A) of each well was read at 450 nm using a plate reader.

hepatocarcinoma SK-HEP-1 = assay: In vitro cell inhibition assay, CCK-8 method, SK-HEP-1; format: cell-based, human; conditions: hepatocarcinoma SK-HEP-1, CCK-8 method, read-out: The half maximal inhibitory concentration (IC50)
Procedure: as §1

lung cancer A549 cell = assay: In vitro cell inhibition assay (MTT method), A549; format: cell-based, human; conditions: 48 h incubation
Procedure: (§3) The human cancer cell lines used for this assay were lung cancer A549 and leukemia HL-60.
(§4) The A549 or HL-60 cells were picked up from cell incubator, after washed for twice using PBS, cells were digested by 0.25% trypsin, and then add medium to terminate the digestion. After cells were collected using centrifuge and re-suspended, count cells under inverted microscope and add medium to make a density was 5×10^4 cells/mL. After 100 μL aliquots were added to each well of 96-well microtiter plates, cells were cultured in 5% incubator for overnight at 37° C., then the different concentration compounds were added to each well. After incubation for 48 h, MTT solution was added to each well and plates were then incubated for 4 h. The MTT tetrazolium was reduced to formazan by living cells. Then the formazan crystals were dissolved though adding DMSO to each well. The absorbance was read at 570 nm with a microplate reader.

[4] = tested on: intracranial malignant melanoma A375; assay: In vitro cell inhibition assay, CCK-8 method, A375; format: cell-based, human; conditions: melanoma A375, CCK-8 method, read-out: The half maximal inhibitory concentration (IC50)
Procedure: as §1

breast cancer MDA-MB-231 = assay: In vitro cell inhibition assay, CCK-8 method, MDA-MB-231; format: cell-based, human; conditions: breast cancer MDA-MB-231, CCK-8 method, read-out: The half maximal inhibitory concentration (IC50)
Procedure: as §1

bladder cancer T24 = assay: In vitro cell inhibition assay, CCK-8 method, T24; format: cell-based, human; conditions: bladder cancer T24, CCK-8 method, read-out: The half maximal inhibitory concentration (IC50)
Procedure: as §1

[5] = tested on: non-small cell lung cancer NCI-H1650; assay: In vitro cell inhibition assay, CCK-8 method, NCI-H1650; format: cell-based, human; conditions: Non-small-cell carcinoma NCI-H1650, CCK-8 method, read-out: The half maximal inhibitory concentration (IC50)
Procedure: as §1

leukemia CCRF-CEM = assay: In vitro cell inhibition assay, CCK-8 method, CCRF-CEM; format: cell-based, human; conditions: read-out: The half maximal inhibitory concentration (IC50)
Procedure: as §1

leukemia HL-60 cells [6] = assay: In vitro cell inhibition assay (MTT method), HL-60; format: cell-based, human; conditions: 48 h
Procedure: as §3, §4

pancreatic cancer BXPC-3 = assay: In vitro cell inhibition assay, CCK-8 method, BXPC-3; format: cell-based, human; conditions: pancreatic cancer BXPC-3, CCK-8 method, read-out: The half maximal inhibitory concentration (IC50)
Procedure: as §1

colon cancer HT-29 = assay: In vitro cell inhibition assay, CCK-8 method, HT-29; format: cell-based, human; conditions: Colorectal Cancer HT-29, CCK-8 method, read-out: The half maximal inhibitory concentration (IC50)
Procedure: as §1

glioma U251 = assay: In vitro cell inhibition assay, CCK-8 method, U251; format: cell-based, human; conditions: glioma U251, CCK-8 method, read-out: The half maximal inhibitory concentration (IC50)
Procedure: as §1

osteosarcoma MG-63 = assay: In vitro cell inhibition assay, CCK-8 method, MG-63; format: cell-based, human; conditions: osteosarcoma MG-63, CCK-8 method, read-out: The half maximal inhibitory concentration (IC50)
Procedure: as §1

leukemia HL-60 cells [7] = assay: In vitro cell inhibition assay, CCK-8 method, HL-60; format: cell-based, human; conditions: for Proliferation inhibitory effect of the compounds on HL-60 cells (% of Control): CCK-8 method; for IC50: leukemia HL-60, CCK-8 method, read-out: The half maximal inhibitory concentration (IC50)
Procedure: as §2

colon cancer COLO-205 = assay: In vitro cell inhibition assay, CCK-8 method, COLO-205
cervical cancer Hela = assay: In vitro cell inhibition assay, CCK-8 method, Hela; format: cell-based, human; conditions: read-out: The half maximal inhibitory concentration (IC50)
Procedure: as §1

SMILES: N#Cc1c(Cl)c(Cl)c(Nc2c(Cl)cc(Cl)cc2Cl)c(C#N)c1Cl [Compound 6-93]
IC50 (prostate cancer PC-3): 1360 nM
IC50 [1]: 6080 nM
IC50 (leukemia MOLT-4): 167 nM
IC50 [2]: 443 nM
IC50 (prostate cancer DU-145): 646 nM
Proliferation inhibitory effect of the compounds on A549 cells (% of Control) ([3]; CCK-8, 0.01 μM): 14.77 % of Control
Proliferation inhibitory effect of the compounds on A549 cells (% of Control) ([3]; CCK-8, 0.1 μM): 19.35 % of Control
Proliferation inhibitory effect of the compounds on A549 cells (% of Control) ([3]; CCK-8, 1 μM): 70.04 % of Control
Proliferation inhibitory effect of the compounds on A549 cells (% of Control) ([3]; CCK-8, 10 μM): 87.64 % of Control
Proliferation inhibitory effect of the compounds on A549 cells (% of Control) ([3]; CCK-8, 100 μM): 98.18 % of Control
IC50 [3]: 715 nM
IC50 (hepatocarcinoma SK-HEP-1): 489 nM
Proliferation inhibitory effect of the compounds on A549 cell (% of Control) (lung cancer A549 cell; 0.01 μM): 12.1 % of Control
Proliferation inhibitory effect of the compounds on A549 cell (% of Control) (lung cancer A549 cell; 0.1 μM): 39.4 % of Control
Proliferation inhibitory effect of the compounds on A549 cell (% of Control) (lung cancer A549 cell; 1 μM): 74.8 % of Control
Proliferation inhibitory effect of the compounds on A549 cell (% of Control) (lung cancer A549 cell; 10 μM): 80.3 % of Control
Proliferation inhibitory effect of the compounds on A549 cell (% of Control) (lung cancer A549 cell; 100 μM): 98.2 % of Control
IC50 [4]: 160 nM
IC50 (breast cancer MDA-MB-231): 175 nM
IC50 (bladder cancer T24): 603 nM
IC50 [5]: 1370 nM
IC50 (leukemia CCRF-CEM): < 10 nM
Proliferation inhibitory effect of the compounds on HL-60 cells (% of Control) (leukemia HL-60 cells [6]; concentration 0.01 μM): 0 % of Control
Proliferation inhibitory effect of the compounds on HL-60 cells (% of Control) (leukemia HL-60 cells [6]; concentration 0.1 μM): 51.8 % of Control
Proliferation inhibitory effect of the compounds on HL-60 cells (% of Control) (leukemia HL-60 cells [6]; concentration 1 μM): 70.7 % of Control
Proliferation inhibitory effect of the compounds on HL-60 cells (% of Control) (leukemia HL-60 cells [6]; concentration 10 μM): 72.3 % of Control
Proliferation inhibitory effect of the compounds on HL-60 cells (% of Control) (leukemia HL-60 cells [6]; concentration 100 μM): 74.8 % of Control
IC50 (pancreatic cancer BXPC-3): 331 nM
IC50 (colon cancer HT-29): 224 nM
IC50 (glioma U251): 1620 nM
IC50 (osteosarcoma MG-63): 196 nM
Proliferation inhibitory effect of the compounds on HL-60 cells (% of Control) (leukemia HL-60 cells [7]; concentration 0.01 μM): 30.19 % of Control
Proliferation inhibitory effect of the compounds on HL-60 cells (% of Control) (leukemia HL-60 cells [7]; concentration 0.1 μM): 44.96 % of Control
Proliferation inhibitory effect of the compounds on HL-60 cells (% of Control) (leukemia HL-60 cells [7]; concentration 1 μM): 82.05 % of Control
Proliferation inhibitory effect of the compounds on HL-60 cells (% of Control) (leukemia HL-60 cells [7]; concentration 10 μM): 87.80 % of Control
Proliferation inhibitory effect of the compounds on HL-60 cells (% of Control) (leukemia HL-60 cells [7]; concentration 100 μM): 93.71 % of Control
IC50 (leukemia HL-60 cells [7]): 85 nM
IC50 (colon cancer COLO-205; read-out: The half maximal inhibitory concentration (IC50), Colorectal Cancer COLO-205, CCK-8 method): 125 nM
IC50 (cervical cancer Hela): 1510 nM

IC50 (prostate cancer PC-3; Homo sapiens): 69000 nM
IC50 ([1]; Homo sapiens): > 100000 nM
IC50 (leukemia MOLT-4; Homo sapiens): < 10 nM
IC50 ([2]; Homo sapiens): 278 nM
IC50 (prostate cancer DU-145; Homo sapiens): 17400 nM
IC50 ([3]; Homo sapiens): 83500 nM
IC50 (hepatocarcinoma SK-HEP-1; Homo sapiens, SK-HEP1): 47 nM
IC50 ([4]; Homo sapiens, A-375): 55300 nM
IC50 (breast cancer MDA-MB-231; Homo sapiens): 2020 nM
IC50 (bladder cancer T24; Homo sapiens): 3540 nM
IC50 ([5]; Homo sapiens): 420 nM
IC50 (leukemia CCRF-CEM; Homo sapiens): < 10 nM
IC50 (pancreatic cancer BXPC-3; Homo sapiens): < 10 nM
IC50 (colon cancer HT-29; Homo sapiens): > 100000 nM
IC50 (glioma U251; Homo sapiens, U-251): > 100000 nM
IC50 (osteosarcoma MG-63; Homo sapiens): < 10 nM
IC50 (leukemia HL-60 cells [7]; Homo sapiens): < 10 nM
IC50 (colon cancer COLO-205; Homo sapiens, COLO 205, read-out: The half maximal inhibitory concentration (IC50)): < 10 nM
IC50 (cervical cancer Hela; Homo sapiens): < 10 nM
SMILES: CC(=O)O[C@H]1C(=O)[C@@]2(C)[C@H]([C@H](OC(=O)c3ccccc3)[C@]3(O)C[C@H](OC(=O)[C@H](O)[C@@H](NC(=O)c4ccccc4)c4ccccc4)C(C)=C1C3(C)C)[C@]1(OC(C)=O)CO[C@@H]1C[C@@H]2O [Taxol]
